Each structure is given as a SMILES string.

A short description of data set [1]: in vivo. The following applies: Sprague-Dawley, rat, plasma, po, 10 mg/kg.
Data set [2] can be described thus: Drug concentration in Sprague-Dawley rat at 5 mg/kg, iv measured at 0 hrs. The note with it: in vivo.
Data set [3] can be described thus: Clearance in Sprague-Dawley rat at 5 mg/kg, iv. The following applies: in vivo.
The nature of data set [4]: Half life in Sprague-Dawley rat at 10 mg/kg, po. The note with it: in vivo.
Data set [5] is described as follows: in vivo. The following applies: Sprague-Dawley, rat, plasma, po, 10 mg/kg. The source holds these as a separate data set.
Data set [6] is described as follows: in vivo. The following applies: Sprague-Dawley, rat, po, 10 mg/kg.
Data set [7] in a line: Volume of distribution at steady state in Sprague-Dawley rat at 5 mg/kg, iv. The note with it: in vivo.
Data set [8] is described as follows: Half life in Sprague-Dawley rat at 5 mg/kg, iv. The note with it: in vivo.
Data set [9] in a line: Ratio of drug concentration in brain to plasma in Wistar Han rat at 100 mg/kg, po measured at 2 hrs by HPLC-MS/MS.
Data set [10] in a line: Drug concentration in Wistar Han rat plasma at 100 mg/kg, po measured at 6 hrs by HPLC-MS/MS.
Data set [11] in a line: Drug concentration in Wistar Han rat brain at 100 mg/kg, po measured at 6 hrs by HPLC-MS/MS.
Data set [12] can be described thus: Drug concentration in Wistar Han rat brain at 100 mg/kg, po measured at 0.37 hrs by HPLC-MS/MS.
A short description of data set [13]: Drug concentration in Wistar Han rat brain at 100 mg/kg, po measured at 2 hrs by HPLC-MS/MS.
A short description of data set [14]: Ratio of drug concentration in brain to plasma in Wistar Han rat at 100 mg/kg, po measured at 0.37 hrs by HPLC-MS/MS.
A short description of data set [15]: Drug concentration in Wistar Han rat plasma at 100 mg/kg, po measured at 0.37 hrs by HPLC-MS/MS.
The nature of data set [16]: Drug concentration in Wistar Han rat plasma at 100 mg/kg, po measured at 2 hrs by HPLC-MS/MS.
Data set [17] can be described thus: Ratio of drug concentration in brain to plasma in Wistar Han rat at 100 mg/kg, po measured at 6 hrs by HPLC-MS/MS.

What is called AUC(0-inf) is the area under the concentration-time curve extrapolated to infinity. A high value points to more exposure. A word on the clearance: it is the volume of plasma or blood freed of the substance per unit of time. A low value points to a low capacity for elimination. Broadly, the half-life is the time in which the quantity being followed falls by half. Low values mean fast loss, high ones slow loss. For orientation: Cmax means the maximum level reached in the sampled fluid or tissue. As a reminder, the bioavailability is dose-corrected exposure relative to a reference, in per cent. Higher therefore signals much systemic uptake. The term Vd denotes a proportionality between amount in the body and measured concentration, not a real space. `COc1ccc2[nH]cc(CCNC(C)=O)c2c1` [MELATONIN]: the AUC(0-inf) in “in vivo [1]” came to 2490 ng·h/mL. Besides, the concentration at 0 h in data set [2] is 935 ng/mL. The compound also returned a clearance in [3] of 35.2 mL/min/kg. In addition, the results for the half-life in data set [4] and in data set [8] were 31.8 min and 19.8 min, respectively. In “in vivo [5]”, this compound returned a Cmax at 24 h of 2790 ng/mL. For the same compound, the bioavailability in “in vivo [6]” was 53.5%. In data set [7], this compound gave a Vd of 1.05 L/kg.
The Kp is tissue or fluid exposure divided by exposure in the circulation. Regarding `COc1ccc2cccc(CCNC(C)=O)c2c1` [AGOMELATINE], the Kp at 2 h in data set [9] came to 2.73. Moreover, the concentration at 6 h in [10] worked out at 450 ng/mL; in [11], 1210 ng/g. The figures for the concentration at […] in data set [12] and in [15] were 13800 ng/g and 4200 ng/mL, respectively. Also, the concentration at 2 h in data set [13] came to 3200 ng/g; in data set [16], 1230 ng/mL. In addition, the Kp at […] in data set [14] came to 3.19. In addition, the Kp at 6 h in data set [17] worked out at 2.73.
As to `CCC(=O)NCC[C@@H]1CCc2ccc3c(c21)CCO3` [RAMELTEON], the Kp at 2 h in data set [9] worked out at 0.86. For the same compound, the concentration at 6 h is 1150 ng/mL in data set [10] and 1190 ng/g in [11]. The concentration at […] was 2850 ng/g in data set [12] and 3160 ng/mL in [15]. In addition, the concentration at 2 h in [13] turned out to be 3030 ng/g; in [16] it was 3450 ng/mL. Further, in data set [14], the Kp at […] amounted to 0.91. Further, the concentration ratio (Kp) at 6 h in data set [17] was 1.02.

The values above are taken from ChEMBL document CHEMBL4834400 (J Med Chem, 2021).
